pKi: −log10 of the molar value.
Key:
human D3 receptor = human D3 receptor (Homo sapiens, UniProt P35462); test: [3H]spiperone binding, membranes of CHO cells transfected with human D3 receptor cDNA; conditions: affinity for the human D3 receptor; [3H]spiperone 0.5-2 nM, CHO-hD3 membranes, 60 minutes at room temperature
Description: Affinity of compounds for the human D3 receptor can be determined by [^3H] spiperone binding CHO cells have been transfected by the cDNA coding for the human D3 receptor (hD3). [^3H]Spiperone (0.5 à 2 nM) binding is performed in the presence of 2.5 to 5 μg of membrane proteins in a medium containing 120 mM NaCl, 5 mM KCl, and 50 mM Tris HCl pH 7.4; incubation for 60 minutes at room temperature is performed. Non specific binding is estimated in the presence of 10 μM haloperidol. Non transfected cells are devoid of any specific binding.

Sequence of human D3 receptor (P35462 whole entry): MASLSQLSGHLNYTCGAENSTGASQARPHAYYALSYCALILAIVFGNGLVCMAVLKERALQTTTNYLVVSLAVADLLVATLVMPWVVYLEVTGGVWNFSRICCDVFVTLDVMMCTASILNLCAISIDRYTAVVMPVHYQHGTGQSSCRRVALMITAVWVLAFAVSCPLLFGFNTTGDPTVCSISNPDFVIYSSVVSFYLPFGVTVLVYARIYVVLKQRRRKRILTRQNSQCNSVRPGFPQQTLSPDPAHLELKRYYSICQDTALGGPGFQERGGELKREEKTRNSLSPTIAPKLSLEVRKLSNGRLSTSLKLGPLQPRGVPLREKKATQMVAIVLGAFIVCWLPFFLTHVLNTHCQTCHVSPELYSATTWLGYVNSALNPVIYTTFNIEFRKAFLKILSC

| Compound | melting point | pKi (human D3 receptor) |
| --- | --- | --- |
| CC(=O)CC1CCC(CCN2CCN(c3ccccc3F)CC2)CC1.Cl (mixture of isomers) [Example 288, 1-(4-{2-[4-(2-Fluorophenyl)-piperazin-1-yl]ethyl}cyclohexyl)-propan-2-one, hydrochloride trans/cis 80/20] | 233 to 236 °C | 8.68 |
| COc1ccccc1N1CCN(CCC2CCN(CC(C)=O)CC2)CC1.Cl.Cl [Example 20, 1-(4-{2-[4-(2-Methoxy-phenyl)piperazin-1-yl]ethyl}piperidin-1-yl)propan-2-one, dihydrochloride] | 260 °C | 8.02 |
| COCC(=O)N[C@H]1CC[C@H](CCN2CC=C(c3cccc(C)c3C#N)CC2)CC1 [Example 54, N-(4-{2-[4-(2-Cyano-3-methylphenyl)-3,6-dihydro-2H-pyridin-1-yl]ethyl}cyclohexyl)-2-methoxyacetamide] | 158 °C | 7.74 |
| CC(=O)NCC(=O)N1CCC(CCN2CCN(c3cccc(C(F)(F)F)c3)CC2)CC1 [Example 14, N-[2-Oxo-2-(4-{2-[4-(3-trifluoromethylphenyl)piperazin-1-yl]ethyl}piperidin-1-yl)ethyl]acetamide] | 133 °C | 7.82 |
| N#CCNC(=O)CC1CCC(CCN2CCN(c3ccccc3F)CC2)CC1 (mixture of isomers) [Example 308, N-Cyanomethyl-2-(4-{2-[4-(2-fluorophenyl)piperazin-1-yl]ethyl}cyclohexyl)acetamide trans/cis 90/10] | 164 to 167 °C | 8.46 |
| N#Cc1ccc2c(c1)CCN(CC[C@H]1CC[C@H](NC(=O)CC(F)(F)F)CC1)C2 [Example 110, N-{4-[2-(6-Cyano-3,4-dihydro-1H-isoquinolin-2-yl)ethyl]cyclohexyl}-3,3,3-trifluoropropanamide] | 215 °C | 7.97 |
| CC(=O)CN1CCC(CCN2CCN(c3cccc4ccccc34)CC2)CC1.Cl.Cl [Example 36, 1-{4-[2-(4-Naphthalen-1-ylpiperazin-1-yl)ethyl]piperidin-1-yl}propan-2-one] | 338 °C | 8.88 |
| COCC(=O)NC1CCC(CCN2CCC(c3cccc(C(F)(F)F)c3)CC2)CC1 (mixture of isomers) [Example 61, 2-Methoxy-N-(4-{2-[4-(3-trifluoromethylphenyl)piperidin-1-yl]ethyl}cyclohexyl)acetamide trans/cis 95/5] | 82 °C | 8.07 |
| Cl.N#CCC(=O)N1CCC(CCN2CCN(c3cccc(C(F)(F)F)c3)CC2)CC1 [Example 15, 3-Oxo-3-(4-{2-[4-(3-trifluoromethylphenyl)piperazin-1-yl]ethyl}piperidin-1-yl)propanenitrile, hydrochloride] | 184 °C | 7.82 |
| NC(=O)CCC(=O)N[C@H]1CC[C@H](CCN2CCN(c3ccccc3)CC2)CC1 [Example 187, N-{4-[2-(4-Phenylpiperazin-1-yl)ethyl]cyclohexyl}succinamide] | 252 °C | 8.41 |
